Data from paper PMC12006171, “Marsupial cathelicidins: characterization, antimicrobial activity and evolution in this unique mammalian lineage” (Frontiers in Immunology, 2025).
≈ marks a conversion by molar mass, not a printed value. Where two headings read alike, the source gives them in different places. One block for each compound: values may come before it. Where a SMILES comes first, the peptide text is derived from it.

What was measured:
Type in all cases: cell-based
[1] = system: Pseudomonas aeruginosa ATCC 27853; assay: microbe, parasite or virus in culture; settings: ATCC 27853
How it was run: (§1)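 Each isolate was exposed to twofold peptide dilutions (final 64-0.125μg/mL) in Mueller Hinton broth, optionally supplemented with calcium and magnesium or 10% lysed horse blood. The MIC was taken as the lowest concentration lacking visible growth after 20–24 hours at 35°C.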

[2] = system: Pseudomonas aeruginosa clinical isolate - animal; assay: microbe, parasite or virus in culture; settings: clinical isolate - animal
How it was run: as §1

[3] = system: Escherichia coli clinical isolate - animal; assay: microbe, parasite or virus in culture; settings: clinical isolate - animal
How it was run: as §1

[4] = system: Staphylococcus aureus ATCC 29213; assay: microbe, parasite or virus in culture; settings: ATCC 29213
How it was run: as §1

[5] = system: Staphylococcus aureus clinical isolate - animal; assay: microbe, parasite or virus in culture; settings: clinical isolate - animal; read-out: MIC S. aureus
How it was run: as §1

[6] = system: Escherichia coli ATCC 25922; assay: microbe, parasite or virus in culture; settings: ATCC 25922
How it was run: as §1

[7] = system: Candida parapsilosis ATCC 22019; assay: microbe, parasite or virus in culture
How it was run: (§2)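 Endpoint is visible-growth inhibition (MIC) after 35°C, 20–24 h incubation. Yeast medium was RPMI-1640 MOPS; bacterial medium was Mueller Hinton broth, with or without divalent cations and lysed horse blood. Final peptide range 64-0.125μg/mL.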

[8] = system: Streptococcus agalactiae Clinical isolate - animal; assay: microbe, parasite or virus in culture; settings: clinical isolate - animal
How it was run: as §2

[9] = system: Candida krusei ATCC 6258; assay: microbe, parasite or virus in culture
How it was run: as §2

[10] = system: Candida albicans Clinical isolate - human; assay: microbe, parasite or virus in culture
How it was run: as §2

[11] = system: Streptococcus agalactiae ATCC 12386; assay: microbe, parasite or virus in culture; settings: ATCC 12386; read-out: MIC S. agalactiae ATCC
How it was run: as §2

[12] = system: Streptococcus pneumoniae ATCC 49619; assay: microbe, parasite or virus in culture; settings: ATCC 49619; read-out: MIC S. pneumoniae ATCC
How it was run: as §2

[13] = system: Staphylococcus aureus clinical isolate – animal, penicillin-resistant (PRSA); settings: clinical isolate – animal, penicillin-resistant (PRSA)
Protocol: (§3) Antimicrobial testing of 78 cathelicidin MPs was performed in two phases as outlined in Figure 1 . In phase I, 40 peptides (27 extant and 13 ancestral) were selected for testing based on rank (outlined above) and similarity to published marsupial cathelicidins with known antimicrobial activity ([33], [41]–[43]). These peptides were tested against nine bacteria (Staphylococcus aureus ATCC 29213 and clinical isolate, Escherichia coli ATCC 25922 and clinical isolate, Pseudomonas aeruginosa ATCC 27853 and clinical isolate, Streptococcus agalactiae ATCC 12386 and clinical isolate, Streptococcus pneumoniae ATCC 49619) and three fungi (Candida krusei ATCC 6258, Candida parapsilosis ATCC 22019, and Candida albicans clinical isolate). Details regarding these strains are available in Supplementary Table 4 . The antimicrobial activity of cathelicidins was determined as the minimum inhibitory concentration (MIC), which was the lowest concentration of cathelicidin that prevented visible bacterial or fungal growth, relative to the negative control. […] Minimum bactericidal concentration (MBC) and/or minimum fungicidal concentration (MFC) was conducted to determine microbicidal versus static action. Activity against S. aureus ATCC, E. coli ATCC, and Pseudomonas aeruginosa ATCC 27853 was examined in the presence of divalent cations to determine the impact of inhibitors.
(§4) Antimicrobial activity was determined using a broth microdilution susceptibility assay in 96 well polypropylene plates according to Clinical Laboratory Standards Institute guidelines M07-A and M26A as described previously ([33], [42], [43]). The bacterial and fungal isolates from humans and animals used in this study are outlined in Supplementary Table 4 . Only yeasts were included in the panel of fungi as they have been used in the susceptibility testing of eutherian ([3], [81]–[83]) and other marsupial cathelicidins previously ([33], [42], [43]). Cathelicidin mature peptides were solubilized in DMSO and serially diluted in duplicate from 128-0.25μg/mL in a final volume of 100µL. For bacteria, cathelicidins were diluted in Mueller Hinton Broth (MHB) with or without 10% lysed horse blood, and with (MH II B) or without (MHB) calcium and magnesium cations. For fungi, cathelicidins were diluted in Roswell Park Memorial Institute medium (RPMI)-1640 MOPS. Ampicillin or tetracycline were included as a positive control for Gram-positive and -negative bacteria respectively, while amphotericin B was used for fungi. A media-only negative control and growth control (no cathelicidin) were also included on each plate. Bacteria were sub-cultured on Muller Hinton agar (MHA) or sheep blood agar (BA), and fungi on Sabouraud dextrose agar (SAB), 20–24 hours prior to the test. Colonies were suspended in saline, the concentration adjusted to a 0.5 McFarland standard, and then diluted in media to a concentration of 1.0 x 10^6 cells/mL. Then, 100μL was added to each well of the cathelicidin dilution plate, giving a final inoculum density of 5 x 10^5 CFU/mL and cathelicidin concentration of 64-0.125μg/mL. Colony counts were performed on MHA/BA/SAB to confirm inoculum density. All plates were incubated at 35°C for 20–24 hours, depending on the strain.
(§5) Colonies were counted and compared to the colony count of the starting inoculum.

[14] = system: Staphylococcus aureus clinical isolate – animal, methicillin-resistant (MRSA); settings: clinical isolate – animal, methicillin-resistant
Protocol: as §3, §4, §5

[15] = read-out: MIC P. aeruginosa ATCC
[16] = ATCC 22019, read-out: MIC C. parapsilosis ATCC

SMILES: CC[C@H](C)[C@H](NC(=O)[C@H](CCCCN)NC(=O)[C@H](Cc1ccccc1)NC(=O)[C@H](CC(N)=O)NC(=O)[C@H](CCCCN)NC(=O)[C@H](CC(C)C)NC(=O)[C@H](CCCNC(=N)N)NC(=O)[C@H](CCCCN)NC(=O)[C@H](CCCCN)NC(=O)[C@@H](NC(=O)[C@H](CCC(=O)O)NC(=O)[C@H](CC(=O)O)NC(=O)CNC(=O)[C@H](Cc1ccccc1)NC(=O)[C@H](CCCCN)NC(=O)[C@H](CCCCN)NC(=O)[C@H](CC(C)C)NC(=O)[C@H](CCCCN)NC(=O)[C@H](CCCCN)NC(=O)[C@H](CCCCN)NC(=O)[C@H](CC(C)C)NC(=O)[C@H](Cc1c[nH]c2ccccc12)NC(=O)[C@H](CCCNC(=N)N)NC(=O)[C@H](Cc1ccccc1)NC(=O)CNC(=O)CNC(=O)[C@H](CCCNC(=N)N)NC(=O)[C@@H](N)CCCCN)[C@@H](C)CC)C(=O)NCC(=O)N[C@@H](Cc1ccccc1)C(=O)N[C@@H](CC(C)C)C(=O)N[C@H](C(=O)N1CCC[C@H]1C(=O)N[C@@H](CC(C)C)C(=O)O)[C@@H](C)CC [MAP13] (H-KRGGFRWLKKKLKKFGDEIKKRLKNFKIGFLIPL-OH)
MBC P. aeruginosa ATCC [1]: 15.4 µM (≈ 63.6 µg/mL)
MIC [1, 15]: 7.7 µM (≈ 31.8 µg/mL)
MIC ([1]; read-out: MIC in the presence of cations P. aeruginosa ATCC): 15.4 µM
MBC P. aeruginosa [2]: 15.4 (15.4)^15.4 µM
MIC P. aeruginosa [2]: 15.4 (15.4)^15.4 µM
MIC in the presence of cations P. aeruginosa [2]: 15.4 (15.4)^15.4 µM
MBC E. coli [3]: 7.7 (7.7)^7.7 µM
MIC E. coli [3]: 7.7 (7.7)^7.7 µM
MIC in the presence of cations E. coli [3]: 7.7 (7.7)^7.7 µM
MIC ([4]; read-out: MIC S. aureus ATCC): >15.4 µM
MIC [5]: >15.4 µM
MBC E. coli ATCC [6]: 7.7 (7.7)^7.7 µM
MIC E. coli ATCC [6]: 7.7 (7.7)^7.7 µM
MIC in the presence of cations E. coli ATCC [6]: 7.7 (7.7)^7.7 µM
MFC C. parapsilosis ATCC ([7]; ATCC 22019): > 15.4 µM
MIC [7, 16]: 7.7 µM
MIC ([8]; read-out: MIC S. agalactiae): >15.4 µM
MIC ([9]; ATCC 6258, read-out: MIC C. krusei ATCC): >15.4 µM
MIC ([10]; Clinical isolate - human, read-out: MIC C. albicans): >15.4 µM
MIC [11]: >15.4 µM
MIC [12]: >15.4 µM

MIC ([7]; Lodderomyces parapsilosis, ATCC22019, RPMI-1640 MOPS, 5 x 10^5 CFU/mL, 35°C 20–24 hours, duplicate): 0.5 µg/mL
MIC ([7]; Lodderomyces parapsilosis, ATCC22019, µM version of Table 4, read-out: MIC C. parapsilosis ATCC): 0.5 µM
MIC ([9]; Pichia kudriavzevii, ATCC6258, RPMI-1640 MOPS, 5 x 10^5 CFU/mL, 35°C 20–24 hours, duplicate): 1 µg/mL
MIC ([9]; Pichia kudriavzevii, ATCC6258, µM version of Table 4, read-out: MIC C. krusei ATCC): 1 µM
MIC ([10]; Candida albicans, clinical isolate, RPMI-1640 MOPS, 5 x 10^5 CFU/mL, 35°C 20–24 hours, duplicate): 0.5 µg/mL
MIC ([10]; Candida albicans, clinical isolate, µM version of Table 4, read-out: MIC C. albicans): 0.5 µM
SMILES: C[C@@H]1[C@H](O)[C@@H](C)/C=C/C=C/C=C/C=C/C=C/C=C/C=C/[C@H](O[C@@H]2O[C@H](C)[C@@H](O)[C@H](N)[C@@H]2O)C[C@@H]2O[C@](O)(C[C@@H](O)C[C@@H](O)[C@H](O)CC[C@@H](O)C[C@@H](O)CC(=O)O[C@H]1C)C[C@H](O)[C@H]2C(=O)O [Amphotericin B, reference compound]

MIC PRSA [13]: 4.4 µM (≈ 15.7 µg/mL)
MIC MRSA [14]: 4.4 µM (≈ 15.7 µg/mL)
MIC [1, 15]: >17.9 µM
MIC ([2]; read-out: MIC P. aeruginosa): 8.9 µM (≈ 31.8 µg/mL)
MIC ([2]; read-out: MIC in the presence of cations P. aeruginosa): 17.9 µM
MIC [3]: 8.9 µM (≈ 31.8 µg/mL)
MIC in the presence of cations E. coli [3]: 8.9 µM
MIC ([4]; read-out: MIC S. aureus ATCC): 4.4 µM (≈ 15.7 µg/mL)
MIC ([4]; read-out: MIC in the presence of cations S. aureus ATCC): 4.4 µM
MIC ([6]; read-out: MIC E. coli ATCC): 4.4 µM (≈ 15.7 µg/mL)
MIC ([6]; read-out: MIC in the presence of cations E. coli ATCC): 4.4 µM
MIC [7, 16]: 13.5 µM
MIC S. agalactiae [8]: 8.9 µM (≈ 31.8 µg/mL)
MIC C. krusei ATCC ([9]; ATCC 6258): 13.5 µM (≈ 48.2 µg/mL)
MIC C. albicans ([10]; Clinical isolate - human): 27.1 µM (≈ 96.8 µg/mL)
MIC [11]: >17.9 µM
MIC [12]: >17.9 µM
SMILES: CC[C@H](C)[C@H](NC(=O)CNC(=O)[C@H](C)NC(=O)[C@H](CC(C)C)NC(=O)[C@@H](NC(=O)[C@H](CCCNC(=N)N)NC(=O)[C@@H](NC(=O)[C@H](CCCNC(=N)N)NC(=O)[C@@H](N)CCCCN)[C@@H](C)CC)[C@@H](C)CC)C(=O)N[C@@H](Cc1c[nH]c2ccccc12)C(=O)N[C@@H](CC(=O)O)C(=O)N[C@@H](CCCNC(=N)N)C(=O)N[C@@H](CC(C)C)C(=O)N[C@@H](CCCCN)C(=O)N[C@@H](CC(N)=O)C(=O)N[C@@H](CC(C)C)C(=O)NCC(=O)N[C@@H](CC(N)=O)C(=O)N[C@@H](CCCNC(=N)N)C(=O)N[C@H](C(=O)N[C@@H](CCCCN)C(=O)N[C@@H](CC(N)=O)C(=O)N[C@@H](CCCNC(=N)N)C(=O)N[C@@H](CC(C)C)C(=O)N[C@@H](CCCNC(=N)N)C(=O)N[C@@H](CC(=O)O)C(=O)N[C@@H](Cc1ccccc1)C(=O)N[C@@H](Cc1ccccc1)C(=O)N[C@@H](CO)C(=O)O)[C@@H](C)CC [AnstCath5] (H-KRIRILAGIWDRLKNLGNRIKNRLRDFFS-OH)
MBC PRSA [13]: 4.4 µM (≈ 15.7 µg/mL)
MBC MRSA [14]: 8.9 µM (≈ 31.8 µg/mL)
MBC P. aeruginosa [2]: 17.9 µM (≈ 63.9 µg/mL)
MBC E. coli [3]: 17.9 µM (≈ 63.9 µg/mL)
MBC S. aureus ATCC [4]: 8.9 µM (≈ 31.8 µg/mL)
MBC E. coli ATCC [6]: 8.9 µM (≈ 31.8 µg/mL)
MFC C. parapsilosis ATCC ([7]; ATCC 22019): > 27.1 µM
MBC S. agalactiae [8]: 8.9 µM (≈ 31.8 µg/mL)
MFC C. krusei ATCC ([9]; ATCC 6258): 13.5 µM (≈ 48.2 µg/mL)
MFC C. albicans ([10]; Clinical isolate - human): > 27.1 µM
